Source: PubChem BioAssay (NCI)
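All cell lines were grown in 96-well plates and treated with compound for 48 hours. At the GI50, growth is halved. TGI is the concentration that stops growth completely.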

What was measured:
Assay in all cases: NCI-60 cell line screen, 48 h
SN12C renal = tested on: SN12C renal
OVCAR-5 ovarian = tested on: OVCAR-5 ovarian
SNB-19 CNS = tested on: SNB-19 CNS
RPMI-8226 leukemia = tested on: RPMI-8226 leukemia
LOX IMVI melanoma = tested on: LOX IMVI melanoma
NCI-H226 lung = tested on: NCI-H226 lung
HOP-92 NSCLC = tested on: HOP-92 NSCLC
IGROV1 ovarian = tested on: IGROV1 ovarian
HCT-15 colon = tested on: HCT-15 colon
NCI-H460 lung = tested on: NCI-H460 lung
HCT-116 colon = tested on: HCT-116 colon
CCRF-CEM leukemia = tested on: CCRF-CEM leukemia
HL-60(TB) leukemia = tested on: HL-60(TB) leukemia
EKVX NSCLC = tested on: EKVX NSCLC
K-562 leukemia = tested on: K-562 leukemia
SF-539 CNS = tested on: SF-539 CNS
NCI-H522 lung = tested on: NCI-H522 lung
UACC-62 melanoma = tested on: UACC-62 melanoma
HOP-62 NSCLC = tested on: HOP-62 NSCLC
NCI/ADR-RES ovarian = tested on: NCI/ADR-RES ovarian
SK-OV-3 ovarian = tested on: SK-OV-3 ovarian
A549 NSCLC = tested on: A549 NSCLC
MOLT-4 leukemia = tested on: MOLT-4 leukemia
TK-10 renal = tested on: TK-10 renal
SK-MEL-28 melanoma = tested on: SK-MEL-28 melanoma
SW-620 colon = tested on: SW-620 colon
MDA-MB-435 = tested on: MDA-MB-435
MDA-MB-231 breast = tested on: MDA-MB-231 breast
OVCAR-8 ovarian = tested on: OVCAR-8 ovarian
HS 578T breast = tested on: HS 578T breast
T-47D breast = tested on: T-47D breast
MCF7 breast = tested on: MCF7 breast
KM12 colon = tested on: KM12 colon
HCC-2998 colon = tested on: HCC-2998 colon
U251 CNS = tested on: U251 CNS
M14 melanoma = tested on: M14 melanoma
SK-MEL-5 melanoma = tested on: SK-MEL-5 melanoma
COLO 205 colon = tested on: COLO 205 colon
OVCAR-3 ovarian = tested on: OVCAR-3 ovarian
SK-MEL-2 melanoma = tested on: SK-MEL-2 melanoma
OVCAR-4 ovarian = tested on: OVCAR-4 ovarian
HT29 colon = tested on: HT29 colon
MALME-3M melanoma = tested on: MALME-3M melanoma
NCI-H23 lung = tested on: NCI-H23 lung
UACC-257 melanoma = tested on: UACC-257 melanoma
UO-31 renal = tested on: UO-31 renal
SF-295 CNS = tested on: SF-295 CNS
SNB-75 CNS = tested on: SNB-75 CNS
RXF 393 renal = tested on: RXF 393 renal
SF-268 CNS = tested on: SF-268 CNS
786-0 renal = tested on: 786-0 renal
ACHN renal = tested on: ACHN renal
DU-145 prostate = tested on: DU-145 prostate
BT-549 breast = tested on: BT-549 breast
PC-3 prostate = tested on: PC-3 prostate
CAKI-1 renal = tested on: CAKI-1 renal

CCOC(=O)CCC(NC(=O)c1ccc(Sc2nc3cc(N)cc(N)c3nc2-c2ccccc2)cc1)C(=O)OCC (stereo not drawn)
GI50 (SN12C renal): 17.7 µM | TGI (SN12C renal): 44.5 µM | GI50 (OVCAR-5 ovarian): 60.5 µM | TGI (OVCAR-5 ovarian): > 100 µM | GI50 (SNB-19 CNS): 4.77 µM | TGI (SNB-19 CNS): > 100 µM | GI50 (RPMI-8226 leukemia): 1.62 µM | TGI (RPMI-8226 leukemia): > 89.8 µM | GI50 (LOX IMVI melanoma): 0.48 µM | TGI (LOX IMVI melanoma): > 29.3 µM | GI50 (NCI-H226 lung): 0.97 µM | TGI (NCI-H226 lung): > 65.9 µM | GI50 (HOP-92 NSCLC): 2.74 µM | TGI (HOP-92 NSCLC): 46.2 µM | GI50 (IGROV1 ovarian): 6.91 µM | TGI (IGROV1 ovarian): > 100 µM | GI50 (HCT-15 colon): 1.8 µM | TGI (HCT-15 colon): > 65.6 µM | GI50 (NCI-H460 lung): 3.05 µM | TGI (NCI-H460 lung): > 100 µM | GI50 (HCT-116 colon): 1.3 µM | TGI (HCT-116 colon): > 100 µM | GI50 (CCRF-CEM leukemia): 1.31 µM | TGI (CCRF-CEM leukemia): > 100 µM | GI50 (HL-60(TB) leukemia): 0.298 µM | TGI (HL-60(TB) leukemia): > 100 µM | GI50 (EKVX NSCLC): 13.7 µM | TGI (EKVX NSCLC): > 77.6 µM | TGI (K-562 leukemia): 24.5 µM | GI50 (SF-539 CNS): 0.0926 µM | TGI (SF-539 CNS): 14.7 µM | GI50 (NCI-H522 lung): 2.76 µM | GI50 (UACC-62 melanoma): 1.03 µM | TGI (UACC-62 melanoma): > 62.4 µM | GI50 (HOP-62 NSCLC): 2.23 µM | TGI (HOP-62 NSCLC): 47.7 µM | GI50 (NCI/ADR-RES ovarian): 21.6 µM | TGI (NCI/ADR-RES ovarian): > 100 µM | GI50 (SK-OV-3 ovarian): 2.83 µM | TGI (SK-OV-3 ovarian): 53 µM | GI50 (A549 NSCLC): 2.9 µM | TGI (A549 NSCLC): > 100 µM | GI50 (MOLT-4 leukemia): 0.726 µM | TGI (MOLT-4 leukemia): > 100 µM | GI50 (TK-10 renal): 22.4 µM | TGI (TK-10 renal): > 100 µM | GI50 (SK-MEL-28 melanoma): 0.884 µM | TGI (SK-MEL-28 melanoma): 32 µM | GI50 (SW-620 colon): 2.38 µM | TGI (SW-620 colon): > 100 µM | GI50 (MDA-MB-435): 11.1 µM | TGI (MDA-MB-435): 33.5 µM | GI50 (MDA-MB-231 breast): 7.96 µM | TGI (MDA-MB-231 breast): 35.1 µM | GI50 (OVCAR-8 ovarian): 2.78 µM | TGI (OVCAR-8 ovarian): > 63 µM | GI50 (HS 578T breast): 10.2 µM | TGI (HS 578T breast): > 87.1 µM | GI50 (T-47D breast): > 53.9 µM | TGI (T-47D breast): > 100 µM | GI50 (MCF7 breast): 0.626 µM | TGI (MCF7 breast): > 100 µM | GI50 (KM12 colon): 2.19 µM | TGI (KM12 colon): > 86.6 µM | GI50 (HCC-2998 colon): 4.73 µM | TGI (HCC-2998 colon): 17 µM | GI50 (U251 CNS): 1.02 µM | TGI (U251 CNS): > 40.6 µM | GI50 (M14 melanoma): 3.34 µM | GI50 (SK-MEL-5 melanoma): 1.71 µM | TGI (SK-MEL-5 melanoma): 5.55 µM | GI50 (COLO 205 colon): 2.71 µM | GI50 (OVCAR-3 ovarian): 0.73 µM | TGI (OVCAR-3 ovarian): 2.88 µM | GI50 (SK-MEL-2 melanoma): 4.22 µM | TGI (SK-MEL-2 melanoma): 72.4 µM | GI50 (OVCAR-4 ovarian): 2.28 µM | TGI (OVCAR-4 ovarian): > 73.2 µM | GI50 (HT29 colon): 0.755 µM | TGI (HT29 colon): > 100 µM | GI50 (MALME-3M melanoma): 19.6 µM | TGI (MALME-3M melanoma): 37.2 µM | GI50 (NCI-H23 lung): 2.29 µM | TGI (NCI-H23 lung): > 58 µM | GI50 (UACC-257 melanoma): > 41.4 µM | TGI (UACC-257 melanoma): > 63.6 µM | GI50 (UO-31 renal): 4.78 µM | TGI (UO-31 renal): > 100 µM | GI50 (SF-295 CNS): 0.939 µM | TGI (SF-295 CNS): > 36.8 µM | GI50 (SNB-75 CNS): 32.2 µM | TGI (SNB-75 CNS): 63.8 µM | GI50 (RXF 393 renal): 3 µM | TGI (RXF 393 renal): 19.4 µM | GI50 (SF-268 CNS): 2.18 µM | TGI (SF-268 CNS): > 66.6 µM | GI50 (786-0 renal): 4.72 µM | TGI (786-0 renal): > 100 µM | GI50 (ACHN renal): 1.3 µM | TGI (ACHN renal): 33.9 µM | GI50 (DU-145 prostate): 38.2 µM | TGI (DU-145 prostate): > 100 µM | GI50 (BT-549 breast): 2.3 µM | TGI (BT-549 breast): 36.9 µM | GI50 (PC-3 prostate): 2.61 µM | TGI (PC-3 prostate): > 100 µM | GI50 (CAKI-1 renal): 2.03 µM | TGI (CAKI-1 renal): > 41.6 µM
